Data reported in the supplement of paper PMC10307832.

Key:
Assay in all cases: relative viability (nuclei count vs DMSO), 5 days (fraction); higher = more cells survive
ABC-1 = tested on: ABC-1
Outline: (§1)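 One day after seeding in 1536-well plates, lung cancer cell lines were dosed by pin tool. Dosing was either single-drug or a fixed anchor-drug dose plus five library-drug doses (not always all listed) in √10 steps. After 5 days, nuclei were stained in one fix-and-stain step and counted on 4× images, and relative viability is the nuclei count of treated wells over that of vehicle wells, given as the median of duplicate plates.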

NCI-H358 = tested on: NCI-H358
Outline: as §1

EPLC-272H = tested on: EPLC-272H
Outline: as §1

NCI-H441 = tested on: NCI-H441
Outline: as §1

CAL-12T = tested on: CAL-12T
Outline: as §1

HCC-15 = tested on: HCC-15
Outline: as §1

NCI-H1993 = tested on: NCI-H1993
Outline: as §1

NCI-H2085 = tested on: NCI-H2085
Outline: as §1

NCI-H2126 = tested on: NCI-H2126
Outline: as §1

NCI-H1915 = tested on: NCI-H1915
Outline: as §1

UMC-11 = tested on: UMC-11
Outline: as §1

HOP-62 = tested on: HOP-62
Outline: as §1

COR-L 105 = tested on: COR-L 105
Outline: as §1

HCC-78 = tested on: HCC-78
Outline: as §1

NCI-H3122 = tested on: NCI-H3122
Outline: as §1

NCI-H1755 = tested on: NCI-H1755
Outline: as §1

NCI-H1666 = tested on: NCI-H1666
Outline: as §1

LXF-289 = tested on: LXF-289
Outline: as §1

NCI-H322M = tested on: NCI-H322M
Outline: as §1

EMC-BAC-2 = tested on: EMC-BAC-2
Outline: as §1

NCI-H2023 = tested on: NCI-H2023
Outline: as §1

NCI-H1975 = tested on: NCI-H1975
Outline: as §1

`CC1(C)CCC(c2ccc(Cl)cc2)=C(CN2CCN(c3ccc(C(=O)NS(=O)(=O)c4ccc(N[C@H](CCN5CCOCC5)CSc5ccccc5)c(S(=O)(=O)C(F)(F)F)c4)cc3)CC2)C1` [Navitoclax] + C[C@]1(O)C[C@@H](c2nc(-c3ccc4ccc(-c5ccccc5)nc4c3)c3c(N)nccn32)C1 [Linsitinib] (partner 1 µM) was tested, and the relative viability (ABC-1; first compound 0.005 µM) was 0.641, the relative viability (ABC-1; first compound 0.01581 µM) was 0.976 and the relative viability (ABC-1; first compound 0.05 µM) was 0.81. For the same compound, the relative viability (ABC-1; first compound 0.1581 µM) was 0.703, the relative viability (ABC-1; first compound 0.5 µM) was 0.708 and the relative viability (NCI-H358; first compound 0.005 µM) was 0.763. The relative viability (NCI-H358; first compound 0.01581 µM) was 0.956, the relative viability (NCI-H358; first compound 0.05 µM) was 0.813 and the relative viability (NCI-H358; first compound 0.1581 µM) was 0.898. For the same compound, the relative viability (NCI-H358; first compound 0.5 µM) was 0.822, the relative viability (EPLC-272H; first compound 0.005 µM) was 1.29 and the relative viability (EPLC-272H; first compound 0.1581 µM) was 1.26. It also gave a relative viability (EPLC-272H; first compound 0.5 µM) of 0.997, a relative viability (NCI-H441; first compound 0.005 µM) of 0.449 and a relative viability (NCI-H441; first compound 0.01581 µM) of 0.587. For the same compound, the relative viability (NCI-H441; first compound 0.05 µM) was 0.412, the relative viability (NCI-H441; first compound 0.1581 µM) was 0.44 and the relative viability (NCI-H441; first compound 0.5 µM) was 0.706. For the same compound, the relative viability (CAL-12T; first compound 0.005 µM) was 0.849, the relative viability (CAL-12T; first compound 0.01581 µM) was 0.937 and the relative viability (CAL-12T; first compound 0.05 µM) was 0.775. The relative viability (CAL-12T; first compound 0.1581 µM) was 0.736, the relative viability (CAL-12T; first compound 0.5 µM) was 0.726 and the relative viability (HCC-15; first compound 0.005 µM) was 0.819. The relative viability (HCC-15; first compound 0.01581 µM) was 0.97, the relative viability (HCC-15; first compound 0.05 µM) was 0.783 and the relative viability (HCC-15; first compound 0.1581 µM) was 0.842. The relative viability (HCC-15; first compound 0.5 µM) was 0.843, the relative viability (NCI-H1993; first compound 0.005 µM) was 0.721 and the relative viability (NCI-H1993; first compound 0.01581 µM) was 0.752. The relative viability (NCI-H1993; first compound 0.05 µM) was 0.706, the relative viability (NCI-H1993; first compound 0.1581 µM) was 0.672 and the relative viability (NCI-H1993; first compound 0.5 µM) was 0.675. For the same compound, the relative viability (NCI-H2085; first compound 0.005 µM) was 0.828, the relative viability (NCI-H2085; first compound 0.01581 µM) was 0.96 and the relative viability (NCI-H2085; first compound 0.05 µM) was 0.831. For the same compound, the relative viability (NCI-H2085; first compound 0.1581 µM) was 1, the relative viability (NCI-H2085; first compound 0.5 µM) was 0.947 and the relative viability (NCI-H2126; first compound 0.005 µM) was 0.708. The relative viability (NCI-H2126; first compound 0.01581 µM) was 0.748, the relative viability (NCI-H2126; first compound 0.05 µM) was 0.786 and the relative viability (NCI-H2126; first compound 0.1581 µM) was 0.661. The relative viability (NCI-H2126; first compound 0.5 µM) was 0.725, the relative viability (NCI-H1915; first compound 0.005 µM) was 1.1 and the relative viability (NCI-H1915; first compound 0.01581 µM) was 1.12. The relative viability (NCI-H1915; first compound 0.05 µM) was 1.07, the relative viability (NCI-H1915; first compound 0.1581 µM) was 1.05 and the relative viability (NCI-H1915; first compound 0.5 µM) was 1.06. It also gave a relative viability (UMC-11; first compound 0.005 µM) of 0.97, a relative viability (UMC-11; first compound 0.01581 µM) of 1.03 and a relative viability (UMC-11; first compound 0.1581 µM) of 1.01. It also gave a relative viability (UMC-11; first compound 0.5 µM) of 0.893, a relative viability (HOP-62; first compound 0.005 µM) of 0.976 and a relative viability (HOP-62; first compound 0.01581 µM) of 0.871. It also gave a relative viability (HOP-62; first compound 0.05 µM) of 0.955, a relative viability (HOP-62; first compound 0.1581 µM) of 0.767 and a relative viability (HOP-62; first compound 0.5 µM) of 0.923. For the same compound, the relative viability (COR-L 105; first compound 0.005 µM) was 0.937, the relative viability (COR-L 105; first compound 0.01581 µM) was 1.02 and the relative viability (COR-L 105; first compound 0.05 µM) was 1.05. The relative viability (COR-L 105; first compound 0.1581 µM) was 1.09, the relative viability (COR-L 105; first compound 0.5 µM) was 0.979 and the relative viability (HCC-78; first compound 0.005 µM) was 0.468. The relative viability (HCC-78; first compound 0.01581 µM) was 0.604, the relative viability (HCC-78; first compound 0.1581 µM) was 0.523 and the relative viability (HCC-78; first compound 0.5 µM) was 0.576. For the same compound, the relative viability (NCI-H3122; first compound 0.005 µM) was 1.11, the relative viability (NCI-H3122; first compound 0.01581 µM) was 1.08 and the relative viability (NCI-H3122; first compound 0.05 µM) was 1.13. The relative viability (NCI-H3122; first compound 0.1581 µM) was 0.985, the relative viability (NCI-H3122; first compound 0.5 µM) was 1.02 and the relative viability (NCI-H1755; first compound 0.005 µM) was 0.969. The relative viability (NCI-H1755; first compound 0.01581 µM) was 0.993, the relative viability (NCI-H1755; first compound 0.05 µM) was 0.954 and the relative viability (NCI-H1755; first compound 0.1581 µM) was 0.968. The relative viability (NCI-H1755; first compound 0.5 µM) was 1.02, the relative viability (NCI-H1666; first compound 0.005 µM) was 0.923 and the relative viability (NCI-H1666; first compound 0.01581 µM) was 0.954. The relative viability (NCI-H1666; first compound 0.05 µM) was 0.82, the relative viability (NCI-H1666; first compound 0.1581 µM) was 0.705 and the relative viability (NCI-H1666; first compound 0.5 µM) was 0.829. For the same compound, the relative viability (LXF-289; first compound 0.005 µM) was 0.971, the relative viability (LXF-289; first compound 0.01581 µM) was 0.974 and the relative viability (LXF-289; first compound 0.05 µM) was 0.84. The relative viability (LXF-289; first compound 0.1581 µM) was 0.978, the relative viability (LXF-289; first compound 0.5 µM) was 0.966 and the relative viability (NCI-H322M; first compound 0.005 µM) was 0.79. It also gave a relative viability (NCI-H322M; first compound 0.01581 µM) of 0.992, a relative viability (NCI-H322M; first compound 0.05 µM) of 0.96 and a relative viability (NCI-H322M; first compound 0.1581 µM) of 0.953. For the same compound, the relative viability (NCI-H322M; first compound 0.5 µM) was 0.921, the relative viability (EMC-BAC-2; first compound 0.005 µM) was 0.759 and the relative viability (EMC-BAC-2; first compound 0.01581 µM) was 0.895. For the same compound, the relative viability (EMC-BAC-2; first compound 0.05 µM) was 0.809, the relative viability (EMC-BAC-2; first compound 0.1581 µM) was 0.78 and the relative viability (EMC-BAC-2; first compound 0.5 µM) was 0.83. The relative viability (NCI-H2023; first compound 0.005 µM) was 0.625, the relative viability (NCI-H2023; first compound 0.01581 µM) was 0.713 and the relative viability (NCI-H2023; first compound 0.05 µM) was 0.716. The relative viability (NCI-H2023; first compound 0.1581 µM) was 0.766, the relative viability (NCI-H2023; first compound 0.5 µM) was 0.647 and the relative viability (NCI-H1975; first compound 0.005 µM) was 1.01. The relative viability (NCI-H1975; first compound 0.01581 µM) was 1.14, the relative viability (NCI-H1975; first compound 0.05 µM) was 1.07 and the relative viability (NCI-H1975; first compound 0.1581 µM) was 0.869. It also gave a relative viability (NCI-H1975; first compound 0.5 µM) of 1.
